Tests used:
Pyrenophora teres = Pyrenophora teres test (barley)/curative; conditions: in Hordeum vulgare, 288 h, read-out: Efficacy in % found
Description: Pyrenophora teres Test (Barley)/Curative • Solvent: 50 parts by weight of N,N-dimethylacetamide • Emulsifier: 1 part by weight of alkylaryl polyglycol ether
To test for curative activity, young plants are sprayed with a conidia suspension of Pyrenophora teres. The plants remain in an incubation cabinet at 20° C. and 100% relative atmospheric humidity for 48 hours.
The plants are placed in a greenhouse at a temperature of about 20° C. and a relative atmospheric humidity of about 80%.
Evaluation is carried out 12 days after the inoculation.

Sphaerotheca fuliginea = Sphaerotheca fuliginea test (cucumber)/protective; type: in vivo; conditions: protective, 7 days after inoculation; for pest or weed control at 1 g/ha: application rate 1 g/ha; for pest or weed control at 2 g/ha: application rate 2 g/ha
Rhizoctonia solani = Rhizoctonia solani test (in vitro)/microtitre plates; type: cell-based; conditions: PDB, 5 days of incubation
Description: Rhizoctonia solani Test (In Vitro)/Microtitre Plates The microtest is carried out in microtitre plates using potato dextrose broth (PDB) as liquid test medium. The active compounds are used as technical grade a.i., dissolved in acetone. For inoculation, a mycelium suspension of Rhizoctonia solani is used. After 5 days of incubation in the dark and with shaking (10 Hz) for each filled cavity of the microtitre plates, the light transmittance is determined with the aid of a spectrophotometer.

Alternaria solani = Alternaria solani test (tomato)/protective; type: in vivo; conditions: protective, 3 days after inoculation
Phytophthora infestans = conditions: in vivo
Puccinia recondita = Puccinia recondita test (wheat)/curative; conditions: application rate 62.5 g/ha, curative, evaluation 8 days after inoculation
Description: Puccinia recondita Test (Wheat)/Curative • Solvent: 50 parts by weight of N,N-dimethylacetamide • Emulsifier: 1 part by weight of alkylaryl polyglycol ether
To test for curative activity, young plants are sprayed with a conidia suspension of Puccinia recondita. The plants remain in an incubation cabinet at 20° C. and 100% relative atmospheric humidity for 48 hours.
The plants are placed in a greenhouse at a temperature of about 20° C. and a relative atmospheric humidity of about 80% to promote the development of rust pustules.
(§1) Evaluation is carried out 8 days after the inoculation.

Botrytis cinerea = Botrytis cinerea test (bean)/protective; conditions: protective, 2 days after inoculation
Description: After the spray coating has dried on, 2 small pieces of agar colonized by Botrytis cinerea are placed onto each leaf. The inoculated plants are placed in a darkened chamber at about 20° C. and 100% relative atmospheric humidity.
The size of the infected areas on the leaves is evaluated 2 days after the inoculation.

[1] = test system: Erysiphe graminis f.sp. hordei; test: Erysiphe test (barley)/protective; type: in vivo; conditions: application rate 12.5 g/ha, protective, evaluation 6 days after inoculation
Plasmopara viticola = Plasmopara viticola test (grapevine)/protective; type: in vivo; conditions: protective, 6 days after inoculation
Leptosphaeria nodorum = Leptosphaeria nodorum test (wheat)/curative; conditions: application rate 25 g/ha, curative, evaluation 8 days after inoculation
Description: Leptosphaeria nodorum Test (Wheat)/Curative • Solvent: 50 parts by weight of N,N-dimethylacetamide • Emulsifier: 1 part by weight of alkylaryl polyglycol ether
To test for curative activity, young plants are sprayed with a conidia suspension of Leptosphaeria nodorum.
The plants are placed in a greenhouse at a temperature of about 15° C. and a relative atmospheric humidity of about 80%.
as §1

[2] = test system: Erysiphe graminis f.sp. hordei; test: Erysiphe test (barley)/curative; type: in vivo; conditions: application rate 25 g/ha, curative, evaluation 6 days after inoculation
[3] = Podosphaera fuliginea, 168 h, read-out: Efficacy in % found
[4] = Podosphaera fuliginea, 168 h, application rate 10 g/ha, read-out: Efficacy in % found

## Fc1ccc(C2(Cn3cncn3)OC2c2ccccc2Cl)cc1 (centres unmarked) [(3-12) epoxyconazole, epoxiconazole]
Pyrenophora teres
  pest or weed control at 125 g/ha: 57%

## mancozeb [(7-1) mancozeb]
Sphaerotheca fuliginea; application rate 10 g/ha
  Efficacy in % found: 0%

## O=C(Nc1ccccc1-c1ccc(Cl)cc1)c1cccnc1Cl [(6-2) boscalid, boscalid]
Sphaerotheca fuliginea; [3]
  pest or weed control at 1 g/ha: 10%

## CCCC1COC(Cn2cncn2)(c2ccc(Cl)cc2Cl)O1 (centres unmarked) [(3-3) propiconazole, propiconazole]
Sphaerotheca fuliginea; [3]
  pest or weed control at 1 g/ha: 37%

## CC(C)[C@@H](C)Nc1c(-c2c(F)cc(F)cc2F)c(Cl)nc2ncnn12 [(22-2), 5-chloro-N—[(IR)-1,2-dimethylpropyl]-6-(2,4,6-trifluorophenyl)[1,2,4]triazolo[1,5-a]-pyrimidine-7-amine]
Sphaerotheca fuliginea; [3]
  pest or weed control at 1 g/ha: 22%

## CCCOC(=O)NCCCN(C)C [(11-2) propamocarb, propamocarb]
Rhizoctonia solani; 1 ppm
  Efficacy in % found: 7%

## COC(=O)N(OC)c1ccccc1COc1ccn(-c2ccc(Cl)cc2)n1 [(2-12) pyraclostrobin, pyraclostrobin]
Alternaria solani; application rate 2 g/ha
  Efficacy in % found: 37%

## CNC(=O)/C(=N/OC)c1ccccc1Oc1ncnc(Oc2cccc(Cl)c2C)c1F [(2-3), (2E)-2-(2-{[6-(3-chloro-2-methylphenoxy)-5-fluoro-4-pyrimidinyl]oxy}phenyl)-2-(methoxyimino)-N-methylethanamide]
Alternaria solani; application rate 1 g/ha
  Efficacy in % found: 39%
Alternaria solani; application rate 2 g/ha
  Efficacy in % found: 32%

## CCC1(C(=O)NC(C)c2ccc(Cl)cc2)C(C)C1(Cl)Cl (centres unmarked) [(6-7) carpropamid, carpropamid]
Pyrenophora teres
  pest or weed control at 125 g/ha: 14%

## CO/C=C(/C(=O)OC)c1ccccc1Oc1cc(Oc2ccccc2C#N)ncn1 [(2-1) azoxystrobin, azoxystrobin]
Sphaerotheca fuliginea; Podosphaera fuliginea, 168 h, application rate 4 g/ha, read-out: Efficacy in % found
  pest or weed control at 4 g/ha: 50%

## CC(C)OC(=O)N[C@H](C(=O)N[C@H](C)c1nc2ccc(F)cc2s1)C(C)C [(5-3) benthiavalicarb, benthiavalicarb]
Phytophthora infestans
  Efficacy in % found: 50%

## CO/N=C(/C(=O)OC)c1ccccc1COc1ccccc1C [(2-9) kresoxim-methyl, kresoxim-methyl]
Puccinia recondita
  Efficacy in % found: 0%

## Cc1cc(C)nc(Nc2ccccc2)n1 [(9-3) pyrimethanil, pyrimethanil]
Sphaerotheca fuliginea; [4]
  pest or weed control at 10 g/ha: 0%

## CC(C)NC(=O)N1CC(=O)N(c2cc(Cl)cc(Cl)c2)C1=O [(12-4) iprodione, iprodione]
Sphaerotheca fuliginea; [4]
  pest or weed control at 10 g/ha: 0%
Botrytis cinerea; application rate 5 g/ha
  Efficacy in % found: 13%
Botrytis cinerea; application rate 10 g/ha
  Efficacy in % found: 54%
Botrytis cinerea; application rate 20 g/ha
  Efficacy in % found: 47%

## Cn1cc(C(=O)Nc2ccc(F)cc2-c2ccc(Cl)c(Cl)c2)c(C(F)F)n1 [(24-1), N-(3′,4′-dichloro-5-fluoro-1,1′-biphenyl-2-yl)-3-(difluoromethyl)-1-methyl-1H-pyrazole-4-carboxamide]
Phytophthora infestans
  Efficacy in % found: 0%
Rhizoctonia solani; 0.003 ppm
  Efficacy in % found: 50%

## N#Cc1c(Cl)c(Cl)c(Cl)c(C#N)c1Cl [(19-2) chlorothalonil, chlorothalonil]
Sphaerotheca fuliginea; [4]
  pest or weed control at 10 g/ha: 0%

## CC(C)CC(C)c1ccccc1NC(=O)c1ccccc1C(F)(F)F (centres unmarked) [(1-15), N-[2-(1,3-dimethylbutyl)phenyl]-2-(trifluoromethyl)benzamide]
[1]
  Efficacy in % found: 0%
Pyrenophora teres
  pest or weed control at 25 g/ha: 14%

## N#Cc1c[nH]cc1-c1cccc2c1OC(F)(F)O2 [(16-2) fludioxonil, fludioxonil]
Puccinia recondita
  Efficacy in % found: 0%

## CO/C=C(/C(=O)OC)c1ccccc1COc1cccc(C(F)(F)F)n1 [(2-11) picoxystrobin, picoxystrobin]
Pyrenophora teres
  pest or weed control at 125 g/ha: 86%

## Cc1ccc(N(SC(F)(Cl)Cl)S(=O)(=O)N(C)C)cc1 [(4-2) tolylfluanid, tolylfluanid]
Sphaerotheca fuliginea; [4]
  pest or weed control at 10 g/ha: 0%

## CCO[PH](=O)O [(17-1) fosetyl-A1, fosetyl-A1]
Plasmopara viticola; application rate 500 g/ha
  Efficacy in % found: 33%
Plasmopara viticola; application rate 1000 g/ha
  Efficacy in % found: 58%

## C[C@H](Nc1c(-c2c(F)cc(F)cc2F)c(Cl)nc2ncnn12)C(F)(F)F [(22-1), 5-chloro-N—[(IS)-2,2,2-trifluoro-1-methylethyl]-6-(2,4,6-trifluorophenyl)[1,2,4]triazolo-[1,5-a]pyrimidine-7-amine]
Sphaerotheca fuliginea; [3]
  pest or weed control at 1 g/ha: 22%

## COC(=O)[C@@H](C)N(C(=O)Cc1ccccc1)c1c(C)cccc1C [(8-5) benalaxyl-M, benalaxyl-M]
Alternaria solani; application rate 2 g/ha
  Efficacy in % found: 0%

## CC(C)CC(C)c1sccc1NC(=O)c1cn(C)nc1C(F)(F)F (centres unmarked) [(6-14) penthiopyrad, penthiopyrad]
Puccinia recondita
  Efficacy in % found: 44%

## COCC(=O)N(c1c(C)cccc1C)[C@H](C)C(=O)OC [(8-4) metalaxyl-M, metalaxyl-M]
Alternaria solani; application rate 2 g/ha
  Efficacy in % found: 0%

## CC(C)(C)C(O)C(Oc1ccc(-c2ccccc2)cc1)n1cncn1 (centres unmarked) [(3-21) bitertanol, bitertanol]
Sphaerotheca fuliginea; [3]
  pest or weed control at 2 g/ha: 20%

## CCCN(CC)CC1COC2(CCC(C(C)(C)C)CC2)O1 (centres unmarked) [(19-10) spiroxamine, spiroxamine]
Sphaerotheca fuliginea; [4]
  pest or weed control at 10 g/ha: 0%
Puccinia recondita
  Efficacy in % found: 0%

## Cc1ccc(C(C)NC(=O)[C@H](NC(=O)OC(C)C)C(C)C)cc1 (some centres unmarked) [(5-1) iprovalicarb, iprovalicarb]
Phytophthora infestans
  Efficacy in % found: 64%

## CO/N=C(/C1=NOCCO1)c1ccccc1Oc1ncnc(Oc2ccccc2Cl)c1F [(2-2) fluoxastrobin, fluoxastrobin]
Sphaerotheca fuliginea; [3]
  pest or weed control at 2 g/ha: 37%
Pyrenophora teres
  pest or weed control at 25 g/ha: 0%
Leptosphaeria nodorum
  Efficacy in % found: 29%

## propineb [(7-4) propineb]
Sphaerotheca fuliginea; application rate 5 g/ha
  Efficacy in % found: 0%

## N#Cc1ccccc1NC(=O)c1snc(Cl)c1Cl [3,4-dichloro-N-(2-cyanophenyl)isothiazole-5-carboxamide]
Pyrenophora teres
  pest or weed control at 125 g/ha: 43%

## CSC1=N[C@@](C)(c2ccccc2)C(=O)N1Nc1ccccc1 [(19-13) fenamidone, fenamidone]
Phytophthora infestans
  Efficacy in % found: 47%

## CO/N=C(/C(=O)OC)c1ccccc1CO/N=C(\C)c1cccc(C(F)(F)F)c1 [(2-4) trifloxystrobin, trifloxystrobin]
[1]
  Efficacy in % found: 78%
Sphaerotheca fuliginea; [3]
  pest or weed control at 1 g/ha: 20%

## O=C(Nc1ccccc1)N(Cc1ccc(Cl)cc1)C1CCCC1 [(20-1) pencycuron, pencycuron]
Rhizoctonia solani; 1 ppm
  Efficacy in % found: 54%

## Cc1nn(C)c(F)c1C(=O)Nc1ccccc1C(C)CC(C)(C)C (centres unmarked) [(1-8), 5-fluoro-1,3-dimethyl-N-[2-(1,3,3-trimethylbutyl)phenyl]-1H-pyrazole-4-carboxamide]
[2]
  Efficacy in % found: 0%
[1]
  Efficacy in % found: 11%
Pyrenophora teres
  pest or weed control at 25 g/ha: 14%

## CC(C)(C)C(O)(CCc1ccc(Cl)cc1)Cn1cncn1 (centres unmarked) [(3-17) tebuconazole, tebuconazole]
Sphaerotheca fuliginea; [3]
  pest or weed control at 2 g/ha: 10%
Pyrenophora teres
  pest or weed control at 25 g/ha: 29%
Leptosphaeria nodorum
  Efficacy in % found: 29%

## CCCN(CCOc1c(Cl)cc(Cl)cc1Cl)C(=O)n1ccnc1 [(14-2) prochloraz, prochloraz]
Puccinia recondita
  Efficacy in % found: 0%

## CC1(C(=O)Nc2ccc(O)c(Cl)c2Cl)CCCCC1 [(6-6) fenhexamid, fenhexamid]
Sphaerotheca fuliginea; [4]
  pest or weed control at 10 g/ha: 0%

Source: patent US9717247B2, “Synergistic fungicidal active combinations” (BAYER CROPSCIENCE AG, priority 2003, dated 2017)
